Experimental data from article PMC9730833, “Targeting OCT2 with Duloxetine to Prevent Oxaliplatin-induced Peripheral Neurotoxicity” (Cancer Research Communications, 2022).

Columns and labels:
Type in all cases: cell-based
OCT2 (hOCT2) [1] = target: T1, OCT2 (hOCT2) (Homo sapiens, UniProt O15244); assay: fluorescent substrate uptake in HEK293 and Hela cells overexpressing hOCT2
T1 construct: gene SLC22A2
T1 sequence (O15244 1-555): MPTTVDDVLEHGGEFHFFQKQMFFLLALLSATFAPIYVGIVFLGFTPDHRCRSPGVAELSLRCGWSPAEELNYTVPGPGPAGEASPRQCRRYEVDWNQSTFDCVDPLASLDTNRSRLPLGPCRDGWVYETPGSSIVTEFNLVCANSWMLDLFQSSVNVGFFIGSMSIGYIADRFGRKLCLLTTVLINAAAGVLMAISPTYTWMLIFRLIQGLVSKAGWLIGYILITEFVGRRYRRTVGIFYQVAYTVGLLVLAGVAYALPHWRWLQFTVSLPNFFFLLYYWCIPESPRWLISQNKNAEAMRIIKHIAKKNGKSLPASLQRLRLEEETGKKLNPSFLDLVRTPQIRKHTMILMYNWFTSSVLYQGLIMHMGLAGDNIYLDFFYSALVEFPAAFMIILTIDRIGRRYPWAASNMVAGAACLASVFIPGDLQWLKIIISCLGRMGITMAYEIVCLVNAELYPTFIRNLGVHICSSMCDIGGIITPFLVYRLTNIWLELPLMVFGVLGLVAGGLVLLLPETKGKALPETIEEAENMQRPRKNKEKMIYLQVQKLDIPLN

OCT2 (mOCT2) [2] = target: T2, OCT2 (mOCT2) (Mus musculus, UniProt O70577); assay: fluorescent substrate uptake in cells overexpressing mOCT2; uptake impaired in OCT1/[…](−/−) satellite glial cells
T2 construct: gene Slc22a2
T2 sequence (O70577 1-553): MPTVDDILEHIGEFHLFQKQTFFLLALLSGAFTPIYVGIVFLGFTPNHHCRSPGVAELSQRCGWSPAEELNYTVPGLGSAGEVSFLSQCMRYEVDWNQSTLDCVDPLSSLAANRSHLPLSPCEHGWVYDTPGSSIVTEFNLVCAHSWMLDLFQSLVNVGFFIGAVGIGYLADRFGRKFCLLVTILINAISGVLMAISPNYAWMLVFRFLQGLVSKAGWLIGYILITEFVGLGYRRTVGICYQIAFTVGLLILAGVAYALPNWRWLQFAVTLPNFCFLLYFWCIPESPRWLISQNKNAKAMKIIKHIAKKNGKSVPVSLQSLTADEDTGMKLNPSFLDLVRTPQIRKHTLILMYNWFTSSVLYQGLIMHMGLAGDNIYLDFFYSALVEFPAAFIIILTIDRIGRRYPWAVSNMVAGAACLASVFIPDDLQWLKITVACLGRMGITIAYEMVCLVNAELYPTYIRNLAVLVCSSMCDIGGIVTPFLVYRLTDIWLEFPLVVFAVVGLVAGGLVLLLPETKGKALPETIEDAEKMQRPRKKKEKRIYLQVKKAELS

OCT2 (rOCT2) = target: T3, OCT2 (rOCT2) (Rattus norvegicus, UniProt Q9R0W2); assay: inhibition of TEA uptake in HEK293 cells overexpressing rOCT2
T3 construct: gene Slc22a2
T3 sequence (Q9R0W2 1-555): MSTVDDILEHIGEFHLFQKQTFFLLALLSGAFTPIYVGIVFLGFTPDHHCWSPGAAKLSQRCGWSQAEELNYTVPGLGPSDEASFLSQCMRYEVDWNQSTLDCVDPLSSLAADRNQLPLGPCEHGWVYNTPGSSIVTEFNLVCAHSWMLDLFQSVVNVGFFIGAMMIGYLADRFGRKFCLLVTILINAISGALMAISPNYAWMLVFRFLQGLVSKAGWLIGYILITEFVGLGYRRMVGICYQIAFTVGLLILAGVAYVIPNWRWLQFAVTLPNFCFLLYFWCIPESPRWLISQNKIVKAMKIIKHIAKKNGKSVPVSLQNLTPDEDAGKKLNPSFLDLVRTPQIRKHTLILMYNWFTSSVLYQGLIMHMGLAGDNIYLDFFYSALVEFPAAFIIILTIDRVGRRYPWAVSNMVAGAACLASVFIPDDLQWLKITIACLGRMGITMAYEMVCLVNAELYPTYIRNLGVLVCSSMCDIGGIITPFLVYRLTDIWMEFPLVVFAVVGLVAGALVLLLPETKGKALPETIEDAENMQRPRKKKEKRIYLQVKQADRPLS

OCT2 (hOCT2) [3] = target: T1, OCT2 (hOCT2); assay: inhibition of ASP uptake in Hela cells overexpressing hOCT2 ([…] in HEK293 cells)
OCT2 (mOCT2) [4] = target: T2, OCT2 (mOCT2); assay: inhibition of TEA, oxaliplatin and ASP uptake in HEK293 cells overexpressing mOCT2; reversible on washout

| SMILES | fluorescent substrate uptake in HEK293 and Hela cells overexpressing hOCT2 (OCT2 (hOCT2) [1]) | fluorescent substrate uptake in cells overexpressing mOCT2; uptake impaired in O (OCT2 (mOCT2) [2]) | inhibition of TEA uptake in HEK293 cells overexpressing rOCT2 (OCT2 (rOCT2)) | IC50 (OCT2 (hOCT2) [3]) [µM] | inhibition of TEA, oxaliplatin and ASP uptake in HEK293 cells overexpressing mOC (OCT2 (mOCT2) [4]) |
| --- | --- | --- | --- | --- | --- |
| CN(C)c1ccc(C=Cc2cc[n+](C)cc2)cc1 [4-(4-(dimethylamino)styryl)-N-methylpyridinium iodide] | Concentration-dependent inhibition of OCT2-dependent ASP transport by duloxetine in HEK293 and Hela cells overexpressing hOCT2 | ASP was taken up in OCT2-proficient cells and uptake was significantly impaired under OCT2-deficient conditions | – | – | – |
| CNCC[C@H](Oc1cccc2ccccc12)c1cccs1 [duloxetine] | – | – | These studies confirmed that duloxetine inhibits the transport of TEA by mouse, rat, and human OCT2. | 3.98 | These studies confirmed that duloxetine inhibits the transport of TEA by mouse, rat, and human OCT2. |
